Measured values as given in US20240116850A1, “COMPOSITIONS AND METHODS RELATED TO BICYCLO[2.2.1] HEPTANAMINE-CONTAINING COMPOUNDS” (The Broad Institute, Inc., priority 2020, published 2024).

Assays:
[1] = Dynamic Vapor Sorption (DVS) hygroscopicity; format: physicochemical
Experimental: Dynamic Vapor Sorption (DVS) was measured via a SMS (Surface Measurement Systems) DVS Intrinsic. The relative humidity at 25° C. were calibrated against the deliquescence point of LiCl, Mg(NO3)2 and KCl.

[2] = Physical and chemical stability on storage (LC-MS and XRPD); format: physicochemical
Experimental: To compare the physical/chemical stability of the salt candidates, approximate 10 mg of each solid sample was added to a 5-mL glass vial covered with Parafilm® with several pin-holes on it, and then stored under 25° C./60% RH and 40° C./75% RH. After one week storage, solids were taken out for LC-MS and XRPD test to evaluate physical and chemical stability.

[3] = TGA and DSC thermal characterization of salts; format: physicochemical; settings: summary grade Good/Moderate/Poor
Experimental: TGA data were collected using a TA Discovery5500/Q5000 TGA from TA Instruments. DSC was performed using a TA Discovery2500/Q2000 DSC from TA Instruments.

[4] = Physical and chemical stability on storage (LC-MS and XRPD); format: physicochemical; remark: listed apart in the source
[5] = Equilibrium solubility in water and bio-relevant media (SGF, FaSSIF, FeSSIF)
[6] = summary grade Good/Moderate/Poor

## CC(C)C1C2CCC(C2)C1N.Cl (racemic) [HCl salt Type A, rac-3-exo-isopropylbicyclo[2.2.1]heptan-2-endo-amine hydrochloride, reference compound]
[1]; 25 C., 80% RH
  DVS (% H2O uptake at 25 C./80% RH): 0.55%
[1]; 25 C., 95% RH
  DVS (% H2O uptake at 25 C./95% RH): 3.3%
[1]; 80% RH
  H2O absorption: 0.55 wt %
[1]; 90% RH
  H2O absorption: 3.3 wt %
[1]; DVS
  hygroscopicity classification: slightly hygroscopic
[1]; [6]
  DVS (matrix of results from solid form characterization): Moderate
[2]; 1 week stability assay
  decomposition or solid form change in stability assay: did not display decomposition or solid form change
[2]; 25° C./60% RH, 1 week
  Solid Form after storage (XRPD): HCl salt Type A
[2]; 40° C./75% RH, 1 week
  Solid Form after storage (XRPD): HCl salt Type A
[2]; BRD4780 salt solid form, 25/60% RH and 40 C./75% RH, 1 week, impurities estimated by LCMS by observation of the TIC
  Stability: 25/60% RH; 40 C./75% RH; 1 week: No significant impurities
[2]; BRD4780 salt solid form, 25/60% RH and 40 C./75% RH, 1 week, solid form change (XRPD)
  Form change?: No change
[2]; summary grade Good/Moderate/Poor, 1 week stability assay
  Stability (matrix of results from solid form characterization): Good
[3]
  TGA/DSC (matrix of results from solid form characterization): Good
[4]; 60° C. for 24 h
  new peak on LC-MS chromatogram after storage: a new peak was observed
[4]; 60° C., 24 h
  Solid Form after storage (XRPD): HCl salt Type A
[5]; Fasted State Simulated Intestinal Fluid (pH 6.5)
  FaSSIF solubility: >71 mg/mL
[5]; Fed State Simulated Intestinal Fluid (pH 5.0)
  FeSSIF solubility: >75 mg/mL
[5]; Simulated gastric fluid (pH 1.8)
  SGF solubility: >77 mg/mL
[5]; final solution in FaSSIF
  pH: 6.0
[5]; final solution in FeSSIF
  pH: 4.8
[5]; final solution in H2O
  pH: 4.5
[5]; final solution in SGF
  pH: 1.8
[5]; [6]
  Solubility (matrix of results from solid form characterization): Good
[5]; water
  H2O solubility (mM; salt): >405.84 mM
[5]; water, HCl salt tested at 100 mg/mL, other salts at 50 mg/mL
  H2O solubility (mg/mL; salt): >77 mg/mL
